From patent US20220087979A1, “TREATMENT OF MALIGNANCIES” (Board of Trustees of Michigan State University, priority 2017, published 2022)
pIC50: −log10 of the molar value.

Key:
U87-MG cells [1] = test: Cell viability assay (MTS assay); format: cell-based; conditions: 72 h
Procedure: (§1) FIG. 5B graphically illustrates the viability of glioblastoma cells treated with different concentrations of TCH-165 or TCH-023 for 72 h. MTS reagent was added to quantify cell viability and the absorbance measured at 490 nm 2 h later. Absorbance readings are expressed as percentage of vehicle control for three independent experiments and data are graphed as mean±SD.
as §1, with “5D is a bar graph showing” for “5B graphically illustrates”, “temozolomide” for “TCH-023”, “was then” for “was”, “added” for “added to quantify cell viability”, “and” for “and the”
U87-MG cells were seeded in a clear 96-well plate at a density of 1.0×10^4 cells per well. Cells were treated with different concentrations of TCH-165 or temozolomide for 72 h. MTS solution (20 μL) was then added and incubated under cell culture conditions for 2 h. Absorbance was read at 490 nm and expressed as a percentage of vehicle control.

LC3B = test: Confocal immunofluorescence of LC3B in U87-MG cells; format: cell-based
Procedure: (§4) U87-MG cells were plated in complete medium at 2.5×10^5 cells/well of a four-chamber glass slide overnight. Fresh medium (500 μL) containing the test compound was added and allowed to incubate for the desire time under cell culture conditions. Cells were washed with chilled immunofluorescent (IF) wash buffer (1×PBS, pH 8.0) and fixed with methanol at −20° C. for 10 minutes. Cells were then washed 2× with IF wash buffer and incubated in blocking buffer (1×PBS, 5% normal goat serum, 0.3% Triton X-100 pH 8.0) for 1 h at RT. Blocking buffer was replaced with primary antibody diluted in dilution buffer (1×PBS, 1% BSA, 0.3% Triton X-100 pH 8.0) overnight (1:200) at 40° C. Primary antibody was washed off 3× and incubated in anti-rabbit Alexa Fluor 488 (1:500) and/or anti-mouse Alexa Fluor 594 for 1 h in the dark, at RT. Secondary antibodies were then washed off (3×) and nuclei stained with Hoechst (4 μg/mL) at RT, for 20 minutes. DNA dye was rinsed off and slides mounted in Prolong Gold and allowed to cure overnight at RT, in the dark. Slides were sealed with nail polish, and LC3B, LAMP1 and p62 punctae detected with a 60× Plan Apo oil objective on a Nikon C2+ or Nikon A1 confocal laser microscope.
LC3B polypeptides were stained with LC3B antibody/Alexa Fluor 488 secondary (green) and the cellular nuclei were stained with Hoechst DNA dye (blue).

Normal FB2 = test: Cell growth inhibition, Normal FB2; format: cell-based; conditions: Canis lupus familiaris; Canine Normal Firbroblasts Normal FB2
Procedure: (§2) The pIC50 values shown in Table 1, herein, was determined as the negative log of the amount of compound required to inhibit tumor cell growth by 50% (the IC50). […] A pIC50 of 4 indicates an IC50 of 10-4.

Hela cells = test: Tumor cell growth inhibition, Hela cells; format: cell-based; conditions: Human Cervical Adenocarcinoma
Procedure: as §2

Fel SCC2 = test: Tumor cell growth inhibition, Fel SCC2; format: cell-based; conditions: Felis catus, SCC-2; Feline Squamous Cell Carcinoma cell line Fel SCC2
Procedure: as §2

p62 [2] = test: p62 immunoblot in U87-MG cells; format: cell-based; conditions: concentration (FIG. 2C) and time (10 μM; 0-24 h, FIG. 2D) dependent
Procedure: (§3) U87-MG cells at 70% confluency were treated with test compounds at the reported concentration and time. Cells were washed with warm PBS and trypsinized with 0.25% Trypsin-EDTA. Samples were collected in chilled PBS, pelleted and washed twice with chilled PBS. Cells were then lysed with celLytic buffer supplemented with 1% sigma fast inhibitor cocktail. Total protein was quantified by BCA reagent, and 20 μg resolved on a 12% (LC3B) or 30 μg on a 4-12% (p62, ATG5, beclin1) Tris-glycine SDS-PAGE, and immunoblotted with antigen specific antibody (1:1000), and goat anti-rabbit HRP (1:1000). Blots were developed with ECL western reagent and imaged with x-ray film.

LC3B-II = test: LC3B immunoblot in U87-MG cells; format: cell-based; conditions: for amount of LC3B-II: TCH-165 10 μM 16 h or BafA1 100 nM 4 h, alone (FIG. 2A)
Procedure: as §3
To determine whether TCH-165 affects LC3B-II formation, glioblastoma astrocytoma (U87-MG) cells were treated with TCH-165 and the level of LC3B-II monitored by immunoblot. U87-MG cells were incubated with different concentrations of TCH-165 and immunoblotted with LC3B-specific antibody. U87-MG cells were also treated with a specific amount of TCH-165 (10 μM) and evaluated at 0, 6, 12, and 24 hours. Cell lysates were immunoblotted with LC3B-specific antibody and anti-GAPDH as a loading control.
U87-MG cells were treated with either vehicle (DMSO) or TCH-165 (10 μM) for 16 h, followed by treatment with bafilomycin A1 (100 nM) for 4 h. Conversion of LC3BI to LC3BII was detected by immunoblot with LC3B-specific antibody.

cOS Brandie primary = test: Tumor cell growth inhibition, cOS Brandie primary; format: cell-based; conditions: Canis lupus familiaris; Canine Osteosarcoma cell line cOS Brandie primary
Procedure: as §2

[3] = tested on: lysosomes of HEK293T cells; test: Lysosome de-acidification live imaging (LysoSensor yellow/blue dextran, LAMP1-RFP); format: cell-based, Human; conditions: cells expressing LAMP1-RFP; TCH-165 10 μM, chloroquine 100 μM
Procedure: HEK293T cells cultured on cover glass slides were transduced with 30 particles per cell of LAMP1-RFP and cultured for 24 h. Cells were then incubated with either vehicle, TCH-165 (10 μM) or chloroquine (100 μM) for 12 h. LysoSensor Yellow/Blue dextran, 10,000 MW, Anionic (1 mg/mL) was then added for a further 12 h and cells imaged with an upright 60× Plan Apo oil objective on a Nikon A1 confocal microscope using standard filter sets for RFP, blue and yellow dyes.
Lysosensor yellow/blue dextran is a pH sensitive dye that is […] (neutral pH). Lysosomes were distinguished from other acidic organelles by imaging with a combination of lysosensor yellow/blue dextran and LAMP1-RFP.

cOS Abrams = test: Tumor cell growth inhibition, cOS Abrams; format: cell-based; conditions: Canis lupus familiaris; Canine Osteosarcoma cell line cOS Abrams
Procedure: as §2

hOS MG63 = test: Tumor cell growth inhibition, hOS MG63; format: cell-based; conditions: MG-63; Human Osteosarcoma cell line hOS MG63
Procedure: as §2

Fel SCC3 = test: Tumor cell growth inhibition, Fel SCC3; format: cell-based; conditions: Felis catus, SCC-3; Feline Squamous Cell Carcinoma cell line Fel SCC3
Procedure: as §2

HS DH82 = test: Tumor cell growth inhibition, HS DH82; format: cell-based; conditions: Canis lupus familiaris; Canine Histiocytic Sarcoma cell line HS DH82
Procedure: as §2

autolysosome formation [4] = test: Tandem RFP-GFP-LC3B autophagy sensor in U87-MG cells; format: cell-based; conditions: 10 μM, 24 h, FIG. 3A
Procedure: By combining an acid insensitive red fluorescent protein (RFP) with an acid sensitive green fluorescent protein (GFP), the conversion of autophagosomes (with neutral pH) to an autolysosome (with acidic pH) can be visualized by monitoring the specific loss of the GFP fluorescence upon acidification of the autophagosome following lysosomal fusion.
U87-MG cells were transduced with 30 particles per cell of tandem-RFP-GFP-LC3B and cultured for 24 h. Cells were then incubated with either vehicle or TCH-165 (10 μM) for an additional 24 h. Cells were fixed with 4% formaldehyde, counter stained with Hoechts DNA dye, and imaged on a Nikon C2 confocal microscope using standard filter sets for blue dye, GFP and RFP.

cOS Gracie = test: Tumor cell growth inhibition, cOS Gracie; format: cell-based; conditions: Canis lupus familiaris; Canine Osteosarcoma cell line cOS Gracie
Procedure: as §2

cOS Brandie mets = test: Tumor cell growth inhibition, cOS Brandie mets; format: cell-based; conditions: Canis lupus familiaris; Canine Osteosarcoma cell line cOS Brandie mets
Procedure: as §2

Fel SCC1 = test: Tumor cell growth inhibition, Fel SCC1; format: cell-based; conditions: Felis catus; Feline Squamous Cell Carcinoma cell line Fel SCC1
Procedure: as §2

HS PJ = test: Tumor cell growth inhibition, HS PJ; format: cell-based; conditions: Canis lupus familiaris; Canine Histiocytic Sarcoma cell line HS PJ
Procedure: as §2

hOS Saos2 = test: Tumor cell growth inhibition, hOS Saos2; format: cell-based; conditions: SAOS-2; Human Osteosarcoma cell line hOS Saos2
Procedure: as §2

U87-MG cells [5] = test: Cytotoxicity assay (LDH assay); format: cell-based; conditions: Homo sapiens, U-87 MG, LDH-based assay, 72 h, FIG. 5E-5F
Procedure: U87-MG cells were seeded in a clear 96-well plate at a density of 1.0×10^4 cells per well. Cells were treated with different concentrations of TCH-165 or temozolomide for 72 h. Culture medium was then assayed for lactate dehydrogenase (LDH) activity according to the manufacturer's protocol. Briefly, cells for maximum toxicity were treated with 10 μL of lysis buffer 45 minutes prior to enzyme assay. Culture media (50 μL) were then transferred to new 96 well plate and 50 μL of substrate mix added. The reaction mixtures were incubated at RT protected from light for 30 minutes. Stop solution (50 μL) was then added and absorbance read at 490 nm. Toxicity was expressed as a fraction of sample treated with lysis buffer.

cOS D17 = test: Tumor cell growth inhibition, cOS D17; format: cell-based; conditions: Canis lupus familiaris; Canine Osteosarcoma cell line cOS D17
Procedure: as §2

cOS Ginger = test: Tumor cell growth inhibition, cOS Ginger; format: cell-based; conditions: Canis lupus familiaris; Canine Osteosarcoma cell line cOS Ginger
Procedure: as §2

[6] = dog, in vivo
MCT C2 = test: Tumor cell growth inhibition, MCT C2; format: cell-based; conditions: Canis lupus familiaris; Canine Mastocytoma cell line MCT C2
Procedure: as §2

cOS Blaz = test: Tumor cell growth inhibition, cOS Blaz; format: cell-based; conditions: Canis lupus familiaris; Canine Osteosarcoma cell line cOS Blaz
Procedure: as §2

hOS U2OS = test: Tumor cell growth inhibition, hOS U2OS; format: cell-based; conditions: Human Osteosarcoma cell line hOS U2OS
Procedure: as §2

Normal FB1 = test: Cell growth inhibition, Normal FB1; format: cell-based; conditions: Canis lupus familiaris; Canine Normal Firbroblasts Normal FB1
Procedure: as §2

p62 [7] = test: Confocal immunofluorescence of p62 in U87-MG cells; format: cell-based; conditions: 10 μM, 24 hr, immunofluorescence imaging
Procedure: All statistical analyses were performed on densitometry data (imageJ) of five individual experiments. Data are graphed as mean±SD and were analyzed by One-Way ANOVA with Bonferroni's multiple comparison test or by student t-test for 2 samples (ns=not significant, *p<0.05, *p<0.01, **p<0.001).
U87-MG cells were plated in complete medium at 2.5×10^5 cells/well of a four-chamber glass slide overnight. Fresh medium (500 μL) containing the test compound was added and allowed to incubate for the desire time under cell culture conditions. Cells were washed with chilled immunofluorescent (IF) wash buffer (1×PBS, pH 8.0) and fixed with methanol at −20° C. for 10 minutes. Cells were then washed 2× with IF wash buffer and incubated in blocking buffer (1×PBS, 5% normal goat serum, 0.3% Triton X-100 pH 8.0) for 1 h at RT. Blocking buffer was replaced with primary antibody diluted in dilution buffer (1×PBS, 1% BSA, 0.3% Triton X-100 pH 8.0) overnight (1:200) at 40° C. Primary antibody was washed off 3× and incubated in anti-rabbit Alexa Fluor 488 (1:500) and/or anti-mouse Alexa Fluor 594 for 1 h in the dark, at RT. Secondary antibodies were then washed off (3×) and nuclei stained with Hoechst (4 μg/mL) at RT, for 20 minutes. […] Slides were sealed with nail polish, and LC3B, LAMP1 and p62 punctae detected with a 60× Plan Apo oil objective on a Nikon C2+ or Nikon A1 confocal laser microscope.

autolysosome formation [8] = test: Co-localization of LC3B with LAMP1 in U87MG cells; format: cell-based; conditions: 10 μM, 24 h
Procedure: as §4
Co-localization of LC3B with LAMP1 was therefore examined to distinguish inhibition of autolysosome formation from autolysosome de-acidification. […]

HEK293 = test: Cell growth inhibition, HEK293; format: cell-based; conditions: Human Embryonic Kidney HEK293
Procedure: as §2

[9] = tested on: lysosome associated membrane protein (LAMP)-1; test: Confocal immunofluorescence of LAMP1 in U87-MG cells; format: cell-based; conditions: 10 μM, 24 h, FIG. 1D
Procedure: as §4

beclin-1, ATG5 and ATG12 = test: Immunoblot of autophagic regulators in U87-MG cells; format: cell-based; conditions: 24 h, FIG. 4
Procedure: as §3

HS BD = test: Tumor cell growth inhibition, HS BD; format: cell-based; conditions: Canis lupus familiaris; Canine Histiocytic Sarcoma cell line HS BD
Procedure: as §2

Structure (SMILES): Cn1nnc2c(C(N)=O)ncn2c1=O [TMZ, temozolomide]
- U87-MG cells killed (U87-MG cells [1]; 1 mM, FIG. 5D): 54%

Structure (SMILES): CCC(=O)N1CCN(c2ccc(-n3c(=O)ccc4cnc5ccc(-c6cnc7ccccc7c6)cc5c43)cc2C(F)(F)F)CC1 [torin1, reference compound]
- accumulation of autophagic vacuoles (LC3B; torin1 100 nM alone, FIG. 2B): modest accumulation

Structure (SMILES): CCOC(=O)[C@]1(c2ccccc2)N=C(c2ccc(OC)cc2)N(Cc2ccccc2)[C@@H]1c1ccc(NCc2ccccc2)cc1 [TCH-165]
- pIC50 (Normal FB2): 4.70
- pIC50 (Hela cells): 5.10
- pIC50 (Fel SCC2): 4.60
- p62 level (p62 [2]): increase in p62
- LC3B-II levels versus TCH-165 alone (LC3B-II; U87-MG, TCH-165 10 μM 16 h followed by BafA1 100 nM 4 h): did not further increase
- amount of LC3B-II (LC3B-II; U87-MG): significant increase
- LC3B-II levels (LC3B-II; U87-MG, different concentrations, 10 μM at 0, 6, 12, 24 h (FIG. 1A, 1B)): increases LC3B-II levels
- pIC50 (cOS Brandie primary): 5.50
- lysosensor yellow/blue dextran fluorescence of lysosomes [3]: mainly had red/blue vacuoles
- pIC50 (cOS Abrams): 4.90
- pIC50 (hOS MG63): 5.50
- pIC50 (Fel SCC3): 3.70
- pIC50 (HS DH82): 5.70
- GFP and RFP fluorescence of vacuoles in RFP-GFP-LC3B cells (autolysosome formation [4]): retained both GFP and RFP positive vacuoles
- pIC50 (cOS Gracie): 5.70
- pIC50 (cOS Brandie mets): 5.40
- pIC50 (Fel SCC1): 5.70
- number of LC3B punctate (LC3B; 10 μM, 16 hours, FIG. 1C): significant increase
- number of autophagic vacuoles (LC3B; torin1 100 nM 4 h followed by TCH-165 10 μM 16 h, FIG. 2B): significantly increased
- pIC50 (HS PJ): 5.50
- pIC50 (hOS Saos2): 5.50
- GI50 (U87-MG cells [5]): 7 µM
- pIC50 (cOS D17): 5.20
- pIC50 (cOS Ginger): 5.10
- GI50 (U87-MG cells [1]; Homo sapiens, U-87 MG, U87-MG, MTS-based assay, FIG. 5B): 4.5 µM
- tolerance / signs of toxicity [6]: without showing any clinical or biochemical signs of toxicity
- pIC50 (MCT C2): 4.00
- pIC50 (cOS Blaz): 5.20
- pIC50 (hOS U2OS): 5.30
- pIC50 (Normal FB1): 3.70
- p62 punctae (p62 [7]): increase in p62 punctae
- Co-localization of LC3B and LAMP1 (autolysosome formation [8]): not observed
- pIC50 (HEK293): 5.70
- number of lysosomes (LAMP1 staining) [9]: increased numbers of lysosomes
- effect on expression of beclin-1, ATG5 and ATG12 (beclin-1, ATG5 and ATG12): did not appear to have any significant effect
- pIC50 (HS BD): 5.20

Structure (SMILES): CCN(CC)CCCC(C)Nc1ccnc2cc(Cl)ccc12 (centres unmarked) [chloroquine, reference compound]
- lysosensor yellow/blue dextran fluorescence of lysosomes [3]: shifted the fluorescence to the yellow spectrum

Structure (SMILES): CCOC(=O)[C@]1(c2ccccc2)N=C(c2ccccc2)N(Cc2ccccc2)[C@@H]1c1ccccc1 [TCH-013]
- pIC50 (Normal FB2): 4.40
- pIC50 (Hela cells): 5.00
- pIC50 (Fel SCC2): 3.70
- pIC50 (cOS Brandie primary): 5.00
- pIC50 (cOS Abrams): 4.80
- pIC50 (hOS MG63): 4.70
- pIC50 (Fel SCC3): 4.30
- pIC50 (HS DH82): 5.00
- pIC50 (cOS Gracie): 5.20
- pIC50 (cOS Brandie mets): 4.80
- pIC50 (Fel SCC1): 5.00
- pIC50 (HS PJ): 5.40
- pIC50 (hOS Saos2): 5.30
- pIC50 (cOS D17): 4.70
- pIC50 (cOS Ginger): 5.50
- pIC50 (cOS Blaz): 4.90
- pIC50 (hOS U2OS): 4.80
- pIC50 (Normal FB1): 3.70
- pIC50 (HS BD): 5.30

Structure (SMILES): CO/C1=C\C(C)=C\[C@@H](C)[C@@H](O)[C@@H](C)C/C(C)=C/C=C/[C@H](OC)[C@@H]([C@@H](C)[C@@H](O)[C@H](C)[C@@]2(O)C[C@@H](O)[C@H](C)[C@@H](C(C)C)O2)OC1=O [BafA1, bafilomycin A1, reference compound]
- amount of LC3B-II (LC3B-II; U87-MG): significant increase

Structure (SMILES): CCOC(=O)[C@]1(c2ccccc2)N=C(c2ccccc2)N[C@@H]1c1ccccc1 [TCH-023, reference compound]
- LC3B-II accumulation (LC3B-II; U87-MG, structurally related control): no effect
- inhibition of autophagy (LC3B immunoblot) (LC3B-II; glioblastoma cells, 10 μM, 24 h, FIG. 5C): did not inhibit autophagy
- induction of cell death (U87-MG cells [1]; U87-MG): did not induce any cell death
